Data reported in patent publication US4117133A, “Vasodilating cuanzine hydrazides” (Inverni Della Beffa S.p.A., priority 1975, dated 1978).
Values after ≈ are worked out from the molar mass of the structure shown. Counter-ions that a name gives are not always drawn.

Columns and labels:
[1] = system: anaesthetized mongrel dogs; assay: Haemodynamic activities in anaesthetized dogs; format: in vivo; parameters: key to Flow coronary / Flow femoral / Contractive power of heart: +++: intense increase; ++: moderate increase; +: faint increase; =: no change; details: intravenous; for Arterial pressure Average variation carotid / Arterial pressure Average variation femoral / Contractive power of heart / Flow coronary / Flow femoral: one twentieth of the LD50: cuanzine HCl 8, hydrazide bitartrate 10, 21-epicuanzine HCl 5, apocuanzine HCl 2.5, dimethylaminoethyl ester 10 mg/kg
Procedure: The products under investigation were administered intravenously to anaesthetized mongrel dogs in doses which were in proportion to the lethal dose (one twentieth of the LD50).
The average of the carotid and femoral arterial pressures, the […] coronary and femoral flow rates and the contractive power of the heart were measured and the results are shown in Table I.

[2] = system: isolated ileum of guinea pigs; assay: Spasmolytic activity on the isolated ileum of guinea pigs (acetylcholine-induced spasm); details: limits in parentheses, contact time spasmogenic 1 min, spasmolytic 3 min, interval between administrations 5 min; for IC50: Cavia porcellus, 0.05 h, read-out: ED50 and base limits on spasm induced by 100 mg/ml of acetylcholine
Procedure: (1) (1) induced by 100 mg/ml of acetylcholine
(1) The time of contact of the spasmogenic and spasmolytic substances was
1 and 3 minutes, respectively.
The interval between the administrations was 5 minutes.

| Molecule | Arterial pressure Average variation carotid [1] [mm Hg] | Arterial pressure Average variation femoral [1] [mm Hg] | Contractive power of heart [1] | Flow coronary [1] | Flow femoral [1] | ED50 and base limits on spasm induced by 100 mg/ml of acetylcholine [2] | IC50 [2] [µg/mL] | haemodynamic activity compared with cuanzine (in words) ([1]; anaesthetized dogs, one twentieth of the LD50) |
| --- | --- | --- | --- | --- | --- | --- | --- | --- |
| COC(=O)[C@]1(O)C[C@]23CCO[C@H]2CCN2CCc4c(n1c1c(OC)cccc41)[C@H]23 [21-epicuanzine hydrochloride, 21-Epicuanzine (A=β-H,B = CO2 Me, C=OH,D=H) hydrochloride] | -20 | -20 | = | ++ | + | – | – | – |
| 21-epicuanzine | – | – | – | – | – | 37 (68.8 - 19.9) γ/ml | – | – |
| COC(=O)C1=C[C@]23CCO[C@H]2CCN2CCc4c(n1c1c(OC)cccc41)[C@@H]23 [Apocuanzine hydrochloride, Apocuanzine] | -15 | -15 | + | +++ | + | – | – | – |
| COc1cccc2c3c([nH]c12)[C@H]1N(CC3)CC[C@@H]2OCC[C@@]21CC(=NN)C(=O)NN [Cuanzine hydrazide bitartrate] | -30 | -30 | + | +++ | ++ | – | 74 | – |
| COc1cccc2c3c4n(c12)[C@](O)(C(=O)OCCN(C)C)C[C@]12CCO[C@H]1CCN(CC3)[C@H]42 [N,N-dimethylaminoethyl nor-cuanzinate] | -10 | -10 | = | ++ | + | – | – | as active as cuanzine |
| COC(=O)[C@]1(O)C[C@]23CCO[C@H]2CCN2CCc4c(n1c1c(OC)cccc41)[C@@H]23 [Cuanzine hydrochloride, reference compound] | -10 | -10 | = | ++ | + | – | 120 | – |
| COC(=O)C1=C[C@]23CCO[C@H]2CCN2CCc4c(n1c1c(OC)cccc41)[C@@H]23 [Apocuanzine] | – | – | – | – | – | – | 26.5 (≈ 69.7 µM) | – |
